According to PubChem BioAssay AID248 (DTP/NCI, 2004):
“And” between values parts separate entries of the source, which are not always exact repeats. Identical values can stand only once. Inconclusive results and toxic doses are left out. Rule as the data show it: active = T/C of 150% or more; inactive = T/C below 125%.

Test system: L1210 leukemia ip in BDF1 mice, survival T/C
Experiment: NCI In Vivo Anticancer Drug Screen. Data for tumor model L1210 Leukemia (intraperitoneal) in B6D2F1 (BDF1) mice
Settings: endpoint: mean survival time, higher = longer survival
In short: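 Mice bearing the transplanted tumor received compound or vehicle. Survival of the treated group was divided by that of the vehicle-treated control group to give the ratio.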

[1] = dose: 100.0 mg/kg/injection, schedule: Q01DX001 (ip), vehicle: saline
[2] = dose: 200.0 mg/kg/injection, schedule: Q01DX001 (ip), vehicle: saline
[3] = dose: 400.0 mg/kg/injection, schedule: Q01DX001 (ip), vehicle: saline

Measured: T/C

CCC(/C=N/N=C(N)N)=N\N=C(N)N
inactive: dose: 15.0 mg/kg/injection, schedule: Q01DX Z (ip), vehicle: saline 97 % of control | dose: 30.0 mg/kg/injection, schedule: Q01DX Z (ip), vehicle: saline 103 % of control | dose: 30.0 mg/kg/injection, schedule: Q01DX Z (oral), vehicle: saline 102 % of control | dose: 60.0 mg/kg/injection, schedule: Q01DX Z (ip), vehicle: saline 103 % of control and 115 % of control | dose: 60.0 mg/kg/injection, schedule: Q01DX Z (oral), vehicle: saline 101 % of control | dose: 120.0 mg/kg/injection, schedule: Q01DX Z (ip), vehicle: saline 108 % of control | dose: 120.0 mg/kg/injection, schedule: Q01DX Z (oral), vehicle: saline 97 % of control and 106 % of control | dose: 240.0 mg/kg/injection, schedule: Q01DX Z (oral), vehicle: saline 102 % of control and 104 % of control | dose: 480.0 mg/kg/injection, schedule: Q01DX Z (oral), vehicle: saline 111 % of control

CCN(CC)C(=O)SCCSC(=O)N(CC)CC
inactive: dose: 25.0 mg/kg/injection, schedule: Q01DX009 (ip), vehicle: saline with Tween-80 110 % of control | dose: 50.0 mg/kg/injection, schedule: Q01DX009 (ip), vehicle: saline with Tween-80 110 % of control | dose: 100.0 mg/kg/injection, schedule: Q01DX009 (ip), vehicle: saline with Tween-80 93 % of control

CCCCCCCCCCCCCCCCCCNC(=S)NC1CCCCC1
inactive: dose: 60.0 mg/kg/injection, schedule: Q01DX015 (ip), vehicle: carboxymethylcellulose (CMC) 98 % of control | dose: 120.0 mg/kg/injection, schedule: Q01DX015 (ip), vehicle: carboxymethylcellulose (CMC) 96 % of control | dose: 240.0 mg/kg/injection, schedule: Q01DX015 (ip), vehicle: carboxymethylcellulose (CMC) 96 % of control | dose: 480.0 mg/kg/injection, schedule: Q01DX015 (ip), vehicle: carboxymethylcellulose (CMC) 98 % of control

CC(=O)OCC(=O)[C@@]1(O)CC[C@H]2[C@@H]3CCC4=CC(=O)[C@H](C)C[C@]4(C)[C@@]3(F)[C@@H](O)C[C@@]21C
inactive: dose: 50.0 mg/kg/injection, schedule: Q01DX Z (sc), vehicle: steriod suspending solution 114 % of control | dose: 100.0 mg/kg/injection, schedule: Q01DX Z (sc), vehicle: steriod suspending solution 114 % of control

CCCCCCOC(=O)Nc1ccc(S(=O)(=O)N(CCC)CCC)cc1
inactive: [1] 97 % of control | [2] 95 % of control | [3] 97 % of control

COc1cc2c(cc1OC)C(Cc1cc(OC)c(OC)cc1[N+](=O)[O-])=NCC2
inactive: [1] 100 % of control | [2] 98 % of control | [3] 94 % of control

CC1(C)CC[N+]1(C)Cc1ccccc1 (centres undefined)
inactive: dose: 6.25 mg/kg/injection, schedule: Q01DX009 (ip), vehicle: saline 95 % of control | dose: 6.25 mg/kg/injection, schedule: Q04DX003 (ip), vehicle: saline 90 % of control | dose: 12.0 mg/kg/injection, schedule: Q01DX001 (ip), vehicle: saline 102 % of control | dose: 12.5 mg/kg/injection, schedule: Q01DX009 (ip), vehicle: saline 109 % of control | dose: 12.5 mg/kg/injection, schedule: Q04DX003 (ip), vehicle: saline 101 % of control | dose: 25.0 mg/kg/injection, schedule: Q01DX001 (ip), vehicle: saline 97 % of control | dose: 25.0 mg/kg/injection, schedule: Q01DX009 (ip), vehicle: saline 97 % of control | dose: 25.0 mg/kg/injection, schedule: Q04DX003 (ip), vehicle: saline 91 % of control

CC(=O)Nc1ccc(S(=O)(=O)N=S(c2ccccc2)c2ccccc2)cc1
inactive: dose: 50.0 mg/kg/injection, schedule: Q01DX001 (ip), vehicle: carboxymethylcellulose (CMC) 101 % of control | dose: 100.0 mg/kg/injection, schedule: Q01DX001 (ip), vehicle: carboxymethylcellulose (CMC) 101 % of control | dose: 200.0 mg/kg/injection, schedule: Q01DX001 (ip), vehicle: carboxymethylcellulose (CMC) 94 % of control | dose: 400.0 mg/kg/injection, schedule: Q01DX001 (ip), vehicle: carboxymethylcellulose (CMC) 97 % of control

O=S(=O)(Nc1ccccc1)c1ccccc1C=C(c1ccccc1)c1ccccc1
inactive: dose: 100.0 mg/kg/injection, schedule: Q01DX001 (ip), vehicle: steriod suspending solution 105 % of control | dose: 200.0 mg/kg/injection, schedule: Q01DX001 (ip), vehicle: steriod suspending solution 86 % of control | dose: 400.0 mg/kg/injection, schedule: Q01DX001 (ip), vehicle: steriod suspending solution 97 % of control
